# Experiment: derived from PAMPA membrane permeability
# Settings: n-hexadecane (PAMPA-derived); buffer (PAMPA)
row,SMILES,hexadecane/water partition coefficient derived from PAMPA flux (Khex/w)
1,CN1CCC[C@@H]1Cc1c[nH]c2ccc(CCS(=O)(=O)c3ccccc3)cc12,1.2 K (ratio)
2,Clc1ccc2c(c1)CCc1cccnc1C2=C1CCNCC1,99.11 K (ratio)
3,CC(C)CN(C[C@@H](O)[C@H](Cc1ccccc1)NC(=O)O[C@H]1CCOC1)S(=O)(=O)c1ccc(N)cc1,0.01885 K (ratio)
4,c1ccc2c(c1)Sc1ccccc1N2CC1CN2CCC1CC2 (stereo not drawn),2951 K (ratio)

# Further lines, results first:
row,hexadecane/water partition coefficient derived from PAMPA flux (Khex/w),SMILES
1,34105.6131886465 K (ratio),CC(C)(C)c1ccc(C(O)CCCN2CCC(C(O)(c3ccccc3)c3ccccc3)CC2)cc1 (stereo not drawn)
2,0.398 K (ratio),Cc1c(O)cccc1C(=O)N[C@@H](CSc1ccccc1)[C@H](O)CN1C[C@H]2CCCC[C@H]2C[C@H]1C(=O)NC(C)(C)C

# From PMC12655371
